Results published in patent US20080021024A1, “Metalloprotease inhibitors” (Alantos Pharmaceuticals Holding, Inc., priority 2006, published 2008).

Target: T1, catalytic domain of MMP-13 enzyme (Homo sapiens, UniProt P45452)
T1 construct: 10 μL of a 50 nM stock solution of catalytic domain of MMP-13 enzyme (produced by Alantos) is added; made in house
Assay: Assay for determining MMP-13 inhibition (fluorescent substrate)
Assay type: biochemical
Conditions: Table 1, Summary of MMP-13 Activity for Compounds of Formula I
Procedure: The MMP-13 inhibiting activity of the MMP-13 inhibiting compounds of the present invention may be measured using any suitable assay known in the art. A standard in vitro assay for MMP-13 inhibiting activity is described in Example 3000.
The typical assay for MMP-13 activity is carried out in assay buffer comprised of 50 mM Tris, pH 7.5, 150 mM NaCl, 5 mM CaCl2 and 0.05% Brij-35. Different concentrations of tested compounds are prepared in assay buffer in 50 μL aliquots. 10 μL of a 50 nM stock solution of catalytic domain of MMP-13 enzyme (produced by Alantos) is added to the compound solution. The mixture of enzyme and compound in assay buffer is thoroughly mixed and incubated for 10 min at room temperature. Upon the completion of incubation, the assay is started by addition of 40 μL of a 12.5 μM stock solution of MMP-13 fluorescent substrate (Calbiochem, Cat. No. 444235). The time-dependent increase in fluorescence is measured at the 320 nm excitation and 390 nm emission by automatic plate multireader. The IC50 values are calculated from the initial reaction rates.

| SMILES | IC50 |
| --- | --- |
| N#Cc1ccc(CC(=O)Nc2cc(C(=O)NCc3ccc(F)cc3)ncn2)cc1 | < 1000 nM |
| N#Cc1ccc(CNC(=O)c2cc(NC(=O)Cc3ccc4c(c3)OCO4)ncn2)cc1 | < 1000 nM |
| CC(C)(C(=O)Nc1cc(C(=O)NCc2ccc(F)cc2)ncn1)c1ccc(-c2nnn[nH]2)cc1 | < 1000 nM |
| O=C(Cc1ccc2c(c1)CCO2)Nc1cc(C(=O)NCc2ccc(-c3nnn[nH]3)cc2)ncn1 | < 1000 nM |

Second part, the molecule after the results:

| IC50 | SMILES |
| --- | --- |
| > 5 nM | CS(=O)(=O)c1ccc(CC(=O)Nc2cc(C(=O)NCc3ccc(-c4nnn[nH]4)cc3)ncn2)cc1 |
| < 1000 nM | Cc1cc(CNC(=O)c2cc(NS(=O)(=O)Cc3ccc(-c4nn[nH]n4)cc3)ncn2)ccc1F |
| > 5 nM | CC(C(=O)Nc1cc(C(=O)NCc2ccc(F)cc2)ncn1)c1ccc(-c2nnn[nH]2)cc1 (centres unmarked) |
| > 5 nM | O=C(NCc1ccc(-c2nnn[nH]2)cc1)c1cc(NS(=O)(=O)Cc2ccccc2)ncn1 |
